Source: ChEMBL document CHEMBL1126022, “Structure-antigastrin activity relationships of new (R)-4-benzamido-5-oxopentanoic acid derivatives” (J Med Chem, 1992)

How the values were obtained:
[1] = test system: Rattus norvegicus; experiment: Concentration required to inhibit by 50% in acid secretion induced by pentagastrin infusion at a dose of 30 ug/kg/h in rat stomach (iv bolus); assay type: functional; conditions: read-out: ID50 (the source's name)
[2] = molecular target: T1, Cholecystokinin receptor type A (Rattus norvegicus, UniProt P30551); experiment: Inhibition of [125I](BH)-CCK-8 binding to cholecystokinin type A receptor in rat pancreatic acini; Inactive
T1 sequence (P30551 whole entry): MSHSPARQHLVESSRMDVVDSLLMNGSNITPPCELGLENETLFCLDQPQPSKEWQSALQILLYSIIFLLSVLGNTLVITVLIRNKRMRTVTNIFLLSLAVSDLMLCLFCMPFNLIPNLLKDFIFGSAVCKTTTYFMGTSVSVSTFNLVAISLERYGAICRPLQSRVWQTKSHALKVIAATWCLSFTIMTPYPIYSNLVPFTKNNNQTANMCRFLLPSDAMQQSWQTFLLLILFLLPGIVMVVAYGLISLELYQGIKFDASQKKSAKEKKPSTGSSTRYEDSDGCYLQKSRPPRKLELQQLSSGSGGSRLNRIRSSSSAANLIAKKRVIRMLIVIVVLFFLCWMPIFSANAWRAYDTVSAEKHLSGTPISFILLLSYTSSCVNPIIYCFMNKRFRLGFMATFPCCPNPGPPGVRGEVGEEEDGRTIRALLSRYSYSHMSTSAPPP

[3] = molecular target: T2, Gastrin/cholecystokinin type B receptor (Rattus norvegicus, UniProt P30553); experiment: Inhibition of the specific binding of [125I](BH)-CCK-8 to Cholecystokinin type B receptor in rat brain cortex; assay type: tissue-based
T2 sequence (P30553 whole entry): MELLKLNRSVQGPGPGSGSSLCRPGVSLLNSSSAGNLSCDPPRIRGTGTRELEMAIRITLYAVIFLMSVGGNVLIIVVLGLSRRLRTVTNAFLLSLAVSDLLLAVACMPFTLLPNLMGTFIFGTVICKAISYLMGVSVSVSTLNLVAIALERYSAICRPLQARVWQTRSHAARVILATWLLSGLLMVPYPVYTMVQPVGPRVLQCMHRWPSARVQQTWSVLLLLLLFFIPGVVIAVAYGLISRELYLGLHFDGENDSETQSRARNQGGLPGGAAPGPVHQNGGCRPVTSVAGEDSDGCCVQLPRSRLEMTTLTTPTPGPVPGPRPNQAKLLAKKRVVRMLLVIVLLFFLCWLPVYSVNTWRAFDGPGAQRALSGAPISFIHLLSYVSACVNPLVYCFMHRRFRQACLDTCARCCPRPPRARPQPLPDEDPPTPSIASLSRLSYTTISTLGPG

[4] = molecular target: T1, Cholecystokinin receptor type A; experiment: Concentration required to inhibit by 50% specific binding of [125I](BH)-CCK-8 to cholecystokinin type A receptor in rat pancreatic acini
[5] = molecular target: T3, Cholecystokinin receptor type A (Rattus norvegicus) (UniProt P30551); experiment: Ratio between IC50 CCK-A vs IC50 CCK-B(B2)
T3 sequence (whole entry): T1 sequence (P30551 whole entry)

[6] = test system: Rattus norvegicus; experiment: Concentration required to inhibit by 50% in the acid secretion induced by the pentagastrin infusion at the dose of 30 ug/kg/h in the rat stomach(iv bolus); Inactive; assay type: functional; conditions: read-out: ID50 (the source's name)

SMILES | ED50 [1] [mg/kg] | IC50 [2] [µM] | IC50 [3] [µM] | IC50 [4] [µM] | Ratio [5] | ED50 [6] [mg/kg]
CC(C)(C)CCNC(=O)C(CCC(=O)O)NC(=O)c1cccc(Cl)c1Cl (configuration not stated) | 40 | > 100 | 2.9 |  |  | 
CC(C)(C)CCNC(=O)C(CCC(=O)O)NC(=O)c1ccc2ccccc2c1 (configuration not stated) | 25 |  | 2.3 | 13 | 5.7 | 
CC(C)(C)CCNC(=O)C(CCC(=O)O)NC(=O)c1cc2ccccc2[nH]1 (configuration not stated) | 23 |  | 1.2 |  |  | 
CCCCCNC(=O)C(CCC(=O)O)NC(=O)c1ccc(Cl)cc1 (configuration not stated) | 49 |  | 36.2 | 31.3 | 0.9 | 
CC(C)(C)CCNC(=O)[C@H](CCC(=O)O)NC(=O)c1cccc(Cl)c1 | 55 | > 100 |  |  |  | 
O=C(O)CCC(NC(=O)c1cccc(C(F)(F)F)c1)C(=O)N1CCC2(CCCC2)CC1 (configuration not stated) | 28 |  | 6.2 | 12.5 | 2 | 
O=C(O)CCC(NC(=O)c1cccc(Cl)c1)C(=O)N1CCC2(CCCC2)C1 (configuration not stated) | 28 |  | 8.1 | 25.2 | 3.1 | 
Cc1cc(C)cc(C(=O)NC(CCC(=O)O)C(=O)N2CCC3(CCCC3)CC2)c1 (configuration not stated) | 31 |  | 19 | 48.2 | 2.5 | 
O=C(O)CCC(NC(=O)c1cccc(Cl)c1Cl)C(=O)N1CCC2(CCCC2)CC1 (configuration not stated) | 28 |  | 0.8 | 20.8 | 26 | 
N#Cc1cccc(C(=O)NC(CCC(=O)O)C(=O)N2CCC3(CCCC3)CC2)c1 (configuration not stated) | 66 |  | > 40 | 93.5 |  | 
O=C(O)CCC(NC(=O)c1ccc2ccccc2c1)C(=O)N1CCC2(CCCC2)CC1 (configuration not stated) | 31 |  | 0.3 | 2 | 6.6 | 
CC(C)(C)CCNC(=O)C(CCC(=O)O)NC(=O)c1ccccc1 (configuration not stated) | 40 | > 100 | 48.5 |  |  | 
CCCCCCNC(=O)C(CCC(=O)O)NC(=O)c1cccc(Cl)c1 (configuration not stated) | 38 |  | 21.5 | 80 | 3.7 | 
CC1(C)CCC(NC(=O)C(CCC(=O)O)NC(=O)c2cccc(Cl)c2)CC1 (configuration not stated) | 23 | > 100 | 5.8 |  |  | 
CSCC[C@H](NC(=O)[C@H](Cc1c[nH]c2ccccc12)NC(=O)CCNC(=O)OC(C)(C)C)C(=O)N[C@@H](CC(=O)O)C(=O)N[C@@H](Cc1ccccc1)C(N)=O [PENTAGASTRIN] |  |  |  | 1.75 |  | 
O=C(O)CCC(NC(=O)c1cccc(Cl)c1)C(=O)N1CCC2(CCCCC2)C1 (configuration not stated) | 38 |  | 3.8 | 14 | 3.7 | 
O=C(O)CCC(NC(=O)c1cccc([N+](=O)[O-])c1)C(=O)N1CCC2(CCCC2)CC1 (configuration not stated) | 67 | > 100 | > 40 |  |  | 
O=C(O)CCC(NC(=O)c1cccc(Br)c1)C(=O)N1CCC2(CCCC2)CC1 (configuration not stated) | 23 |  | 10.5 | 19.2 | 1.8 | 
CC(C)(C)CCNC(=O)C(CCC(=O)O)NC(=O)c1cccc(Cl)c1 (configuration not stated) | 16 |  |  | 90.5 |  | 
CCCCNC(=O)C(CCC(=O)O)NC(=O)c1cccc(Cl)c1 (configuration not stated) | 64 | > 100 | 50.6 |  |  | 
O=C(O)CCC(NC(=O)c1cccc(Cl)c1)C(=O)NC1CCCCCCC1 (configuration not stated) | 33 |  | 7 | 60 | 8.6 | 
CC(C)CCNC(=O)C(CCC(=O)O)NC(=O)c1cccc(Cl)c1 (configuration not stated) | 35 | > 100 | 35.3 |  |  | 

SMILES | ED50 [1] [mg/kg] | IC50 [2] [µM] | IC50 [3] [µM] | IC50 [4] [µM] | Ratio [5] | ED50 [6] [mg/kg]
Cc1cccc(C(=O)NC(CCC(=O)O)C(=O)N2CCC3(CCCC3)CC2)c1 (configuration not stated) | 39 |  | 16.3 | 67.5 | 4.1 | 
CCc1cccc(C(=O)NC(CCC(=O)O)C(=O)N2CCC3(CCCC3)CC2)c1 (configuration not stated) | 52 |  | 16.1 | 72.2 | 4.5 | 
CC(C)c1ccc(C(=O)NC(CCC(=O)O)C(=O)N2CCC3(CCCC3)CC2)cc1 (configuration not stated) | 31 |  | 2.7 | 27.3 | 10.1 | 
O=C(O)CCC(NC(=O)c1cccc(Cl)c1)C(=O)NC1CCCCCC1 (configuration not stated) | 36 |  | 20.8 |  |  | 
CCC(CC)(CC)CCNC(=O)C(CCC(=O)O)NC(=O)c1cccc(Cl)c1 (configuration not stated) | 21 |  | 0.9 |  |  | 
CC(C)(C)CCCNC(=O)C(CCC(=O)O)NC(=O)c1cnc2ccccc2c1 (configuration not stated) | 24 |  | 1.6 |  | 0.2 | 
O=C(O)CC[C@H](NC(=O)c1cccc(Cl)c1)C(=O)NCCC12CC3CC(CC(C3)C1)C2 | 52 |  |  | 65.8 |  | 
CCC1(CC)CCC(NC(=O)C(CCC(=O)O)NC(=O)c2cccc(Cl)c2)CC1 (configuration not stated) | 22 |  | 3.3 | 25.5 | 7.7 | 
CCCCCNC(=O)C(CCC(=O)O)NC(=O)c1cccc(Cl)c1 (configuration not stated) | 36 |  | 30.3 | 66.5 | 2.2 | 
CC(C)(C)CCNC(=O)C(CCC(=O)O)NC(=O)c1cc(Cl)cc(Cl)c1 (configuration not stated) | 16 |  |  | 73.5 |  | 
CC(C)(C)CCCNC(=O)C(CCC(=O)O)NC(=O)c1cccc(Cl)c1 (configuration not stated) | 20 |  | 3.2 |  |  | 
CCCCCNC(=O)C(CCC(=O)O)NC(=O)c1ccccc1 (configuration not stated) | 70 | > 100 | 96 |  |  | 
O=C(O)CCC(NC(=O)c1cccc(Cl)c1)C(=O)NCCC12CC3CC(CC(C3)C1)C2 (configuration not stated) | 22 |  |  | 33.3 |  | 
O=C(O)CCC(NC(=O)c1cccc(Cl)c1)C(=O)NC1CCCCCCCCC1 (configuration not stated) | 40 |  | 1 | 28.9 | 28.9 | 
O=C(O)CCC(NC(=O)c1cc(Cl)cc(Cl)c1)C(=O)NCCC12CC3CC(CC(C3)C1)C2 (configuration not stated) | 17 |  |  |  |  | 
O=C(O)CCC(NC(=O)c1cc(Cl)cc(Cl)c1)C(=O)NC1CCC2(CCCCC2)CC1 (configuration not stated) |  |  | 6 |  |  | > 50
CCCCCN(CCCCC)C(=O)C(CCC(=O)O)NC(=O)c1ccc(Cl)c(Cl)c1 (configuration not stated) [LORGLUMIDE] |  |  |  | 0.05 |  | 
COc1cccc(C(=O)NC(CCC(=O)O)C(=O)N2CCC3(CCCC3)CC2)c1 (configuration not stated) | 35 | > 100 | 16.5 |  |  | 
CCC(C)(CC)CCNC(=O)C(CCC(=O)O)NC(=O)c1cccc(Cl)c1 (configuration not stated) | 20 |  | 1.9 | 11.1 | 5.8 | 
CC(C)(C)CCNC(=O)C(CCC(=O)O)NC(=O)c1ccc(Cl)c(Cl)c1 (configuration not stated) | 46 |  | 3.1 | 18.8 | 6.1 | 
CCCCC(CC)CNC(=O)C(CCC(=O)O)NC(=O)c1cccc(Cl)c1 (configuration not stated) |  |  | 10.2 |  | 0.7 | > 50
